# Experimental data reported in PubChem BioAssay (NCI).
#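 In this assay, cells in 96-well plates receive the compound at five concentrations for 48 hours. Endpoints are linearly interpolated between the surrounding concentrations. GI50: concentration for 50% inhibition of growth. TGI: total growth inhibition.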
# What was measured:
# Experiment in all cases: NCI anticancer screen, dose series, 48 h
# RXF 393 renal = tested on: RXF 393 renal
# CCRF-CEM leukemia = tested on: CCRF-CEM leukemia
# SK-OV-3 ovarian = tested on: SK-OV-3 ovarian
# MOLT-4 leukemia = tested on: MOLT-4 leukemia
# MCF7 breast = tested on: MCF7 breast
# T-47D breast = tested on: T-47D breast
# SNB-19 CNS = tested on: SNB-19 CNS
# HCC-2998 colon = tested on: HCC-2998 colon
# TK-10 renal = tested on: TK-10 renal
# NCI-H23 lung = tested on: NCI-H23 lung
# OVCAR-8 ovarian = tested on: OVCAR-8 ovarian
# OVCAR-4 ovarian = tested on: OVCAR-4 ovarian
# COLO 205 colon = tested on: COLO 205 colon
# M14 melanoma = tested on: M14 melanoma
# UACC-257 melanoma = tested on: UACC-257 melanoma
# HCT-15 colon = tested on: HCT-15 colon
# SK-MEL-2 melanoma = tested on: SK-MEL-2 melanoma
# SF-539 CNS = tested on: SF-539 CNS
# SW-620 colon = tested on: SW-620 colon
# DU-145 prostate = tested on: DU-145 prostate
# HT29 colon = tested on: HT29 colon
# KM12 colon = tested on: KM12 colon
# HL-60(TB) leukemia = tested on: HL-60(TB) leukemia
# HCT-116 colon = tested on: HCT-116 colon
# PC-3 prostate = tested on: PC-3 prostate
# OVCAR-3 ovarian = tested on: OVCAR-3 ovarian
# HOP-62 NSCLC = tested on: HOP-62 NSCLC
# A498 renal = tested on: A498 renal
# NCI/ADR-RES ovarian = tested on: NCI/ADR-RES ovarian
# SNB-75 CNS = tested on: SNB-75 CNS
# HS 578T breast = tested on: HS 578T breast
# SK-MEL-28 melanoma = tested on: SK-MEL-28 melanoma
# 786-0 renal = tested on: 786-0 renal
# UACC-62 melanoma = tested on: UACC-62 melanoma
# HOP-92 NSCLC = tested on: HOP-92 NSCLC
# NCI-H460 lung = tested on: NCI-H460 lung
# MALME-3M melanoma = tested on: MALME-3M melanoma
# U251 CNS = tested on: U251 CNS
# LOX IMVI melanoma = tested on: LOX IMVI melanoma
# SF-268 CNS = tested on: SF-268 CNS
# RPMI-8226 leukemia = tested on: RPMI-8226 leukemia
# SK-MEL-5 melanoma = tested on: SK-MEL-5 melanoma
# A549 NSCLC = tested on: A549 NSCLC
# K-562 leukemia = tested on: K-562 leukemia
# UO-31 renal = tested on: UO-31 renal
# MDA-MB-231 breast = tested on: MDA-MB-231 breast
# SN12C renal = tested on: SN12C renal
# BT-549 breast = tested on: BT-549 breast
# ACHN renal = tested on: ACHN renal
# IGROV1 ovarian = tested on: IGROV1 ovarian
# NCI-H226 lung = tested on: NCI-H226 lung
# NCI-H522 lung = tested on: NCI-H522 lung
# OVCAR-5 ovarian = tested on: OVCAR-5 ovarian
# MDA-MB-435 = tested on: MDA-MB-435
# SF-295 CNS = tested on: SF-295 CNS
# CAKI-1 renal = tested on: CAKI-1 renal
# EKVX NSCLC = tested on: EKVX NSCLC
# SR leukemia = tested on: SR leukemia
smiles,measurement,setting,value
COc1ccc(CNC(=O)c2c(C)n([O-])c3cc(F)c(F)cc3[n+]2=O)cc1,GI50,RXF 393 renal,8.2 µM
same,TGI,RXF 393 renal,23.4 µM
same,GI50,CCRF-CEM leukemia,3.2 µM
same,TGI,CCRF-CEM leukemia,12.4 µM
same,GI50,SK-OV-3 ovarian,14.8 µM
same,TGI,SK-OV-3 ovarian,27.9 µM
same,GI50,MOLT-4 leukemia,4.61 µM
same,TGI,MOLT-4 leukemia,21.2 µM
same,GI50,MCF7 breast,5.72 µM
same,TGI,MCF7 breast,19.3 µM
same,GI50,T-47D breast,3.33 µM
same,TGI,T-47D breast,16.1 µM
same,GI50,SNB-19 CNS,13.1 µM
same,TGI,SNB-19 CNS,25.8 µM
same,GI50,HCC-2998 colon,2.07 µM
same,TGI,HCC-2998 colon,5.77 µM
same,GI50,TK-10 renal,14.1 µM
same,TGI,TK-10 renal,27.1 µM
same,GI50,NCI-H23 lung,2.38 µM
same,TGI,NCI-H23 lung,10.6 µM
same,GI50,OVCAR-8 ovarian,3.72 µM
same,TGI,OVCAR-8 ovarian,15.9 µM
same,GI50,OVCAR-4 ovarian,13.7 µM
same,TGI,OVCAR-4 ovarian,26.9 µM
same,GI50,COLO 205 colon,11.2 µM
same,TGI,COLO 205 colon,24.3 µM
same,GI50,M14 melanoma,12 µM
same,TGI,M14 melanoma,24.4 µM
same,GI50,UACC-257 melanoma,10.4 µM
same,TGI,UACC-257 melanoma,23.6 µM
same,GI50,HCT-15 colon,1.77 µM
same,TGI,HCT-15 colon,3.43 µM
same,GI50,SK-MEL-2 melanoma,15.4 µM
same,TGI,SK-MEL-2 melanoma,29.5 µM
same,GI50,SF-539 CNS,16.5 µM
same,TGI,SF-539 CNS,30.6 µM
same,GI50,SW-620 colon,3.83 µM
same,TGI,SW-620 colon,13.1 µM
same,GI50,DU-145 prostate,13.7 µM
same,TGI,DU-145 prostate,26.5 µM
same,GI50,HT29 colon,3.91 µM
same,TGI,HT29 colon,16 µM
same,GI50,KM12 colon,15.7 µM
same,TGI,KM12 colon,35.5 µM
same,GI50,HL-60(TB) leukemia,2.64 µM
same,TGI,HL-60(TB) leukemia,12.2 µM
same,GI50,HCT-116 colon,14.1 µM
same,TGI,HCT-116 colon,27.1 µM
same,GI50,PC-3 prostate,11.7 µM
same,TGI,PC-3 prostate,23.9 µM
same,GI50,OVCAR-3 ovarian,10 µM
same,TGI,OVCAR-3 ovarian,21.6 µM
same,GI50,HOP-62 NSCLC,18.2 µM
same,TGI,HOP-62 NSCLC,32.7 µM
same,GI50,A498 renal,16.1 µM
same,TGI,A498 renal,29.6 µM
same,GI50,NCI/ADR-RES ovarian,17 µM
same,TGI,NCI/ADR-RES ovarian,31.6 µM
same,GI50,SNB-75 CNS,0.461 µM
same,TGI,SNB-75 CNS,5.58 µM
same,GI50,HS 578T breast,2.11 µM
same,TGI,HS 578T breast,5.96 µM
same,GI50,SK-MEL-28 melanoma,11.5 µM
same,TGI,SK-MEL-28 melanoma,23.6 µM
same,GI50,786-0 renal,16.9 µM
same,TGI,786-0 renal,30.6 µM
same,GI50,UACC-62 melanoma,15 µM
same,TGI,UACC-62 melanoma,28.5 µM
same,GI50,HOP-92 NSCLC,14.9 µM
same,TGI,HOP-92 NSCLC,32 µM
same,GI50,NCI-H460 lung,13.1 µM
same,TGI,NCI-H460 lung,25.9 µM
same,GI50,MALME-3M melanoma,11.2 µM
same,TGI,MALME-3M melanoma,26.8 µM
same,GI50,U251 CNS,12.8 µM
same,TGI,U251 CNS,25.5 µM
same,GI50,LOX IMVI melanoma,5.22 µM
same,TGI,LOX IMVI melanoma,17.5 µM
same,GI50,SF-268 CNS,4.4 µM
same,TGI,SF-268 CNS,15.7 µM
same,GI50,RPMI-8226 leukemia,6.4 µM
same,TGI,RPMI-8226 leukemia,30.9 µM
same,GI50,SK-MEL-5 melanoma,12.7 µM
same,TGI,SK-MEL-5 melanoma,25.3 µM
same,GI50,A549 NSCLC,17.6 µM
same,TGI,A549 NSCLC,36.8 µM
same,GI50,K-562 leukemia,1.93 µM
same,TGI,K-562 leukemia,4.05 µM
same,GI50,UO-31 renal,12.8 µM
same,TGI,UO-31 renal,26.6 µM
same,GI50,MDA-MB-231 breast,12.2 µM
same,TGI,MDA-MB-231 breast,25.5 µM
same,GI50,SN12C renal,14.2 µM
same,TGI,SN12C renal,27.2 µM
same,GI50,BT-549 breast,13.8 µM
same,TGI,BT-549 breast,26.8 µM
same,GI50,ACHN renal,16.9 µM
same,TGI,ACHN renal,30.6 µM
same,GI50,IGROV1 ovarian,1.9 µM
same,TGI,IGROV1 ovarian,3.84 µM
same,GI50,NCI-H226 lung,16.5 µM
same,TGI,NCI-H226 lung,41 µM
same,GI50,NCI-H522 lung,11.5 µM
same,TGI,NCI-H522 lung,27 µM
same,GI50,OVCAR-5 ovarian,16 µM
same,TGI,OVCAR-5 ovarian,29.4 µM
CCc1ncc(C(C)(O)c2ccccc2)n1Cc1ccccc1 (stereo not given),TGI,RXF 393 renal,> 100 µM
same,TGI,MDA-MB-435,48.1 µM
same,TGI,CCRF-CEM leukemia,> 100 µM
same,TGI,SK-OV-3 ovarian,> 100 µM
same,TGI,MOLT-4 leukemia,65.1 µM
same,TGI,MCF7 breast,> 100 µM
same,TGI,T-47D breast,> 100 µM
same,TGI,SNB-19 CNS,> 100 µM
same,TGI,TK-10 renal,> 100 µM
same,TGI,NCI-H23 lung,> 100 µM
same,TGI,OVCAR-8 ovarian,> 100 µM
same,TGI,OVCAR-4 ovarian,> 100 µM
same,TGI,COLO 205 colon,> 100 µM
same,TGI,M14 melanoma,13 µM
same,TGI,UACC-257 melanoma,> 100 µM
same,TGI,HCT-15 colon,> 100 µM
same,TGI,SK-MEL-2 melanoma,> 100 µM
same,TGI,SF-539 CNS,> 100 µM
same,TGI,SF-295 CNS,> 100 µM
same,TGI,SW-620 colon,> 100 µM
same,TGI,DU-145 prostate,> 100 µM
same,TGI,HT29 colon,> 100 µM
same,TGI,KM12 colon,> 100 µM
same,TGI,HCT-116 colon,11 µM
same,TGI,PC-3 prostate,> 100 µM
same,TGI,OVCAR-3 ovarian,> 100 µM
same,TGI,NCI/ADR-RES ovarian,> 100 µM
same,TGI,SNB-75 CNS,> 100 µM
same,TGI,HS 578T breast,> 100 µM
same,TGI,SK-MEL-28 melanoma,> 100 µM
same,TGI,UACC-62 melanoma,54.2 µM
same,TGI,HOP-92 NSCLC,> 100 µM
same,TGI,CAKI-1 renal,> 100 µM
same,TGI,NCI-H460 lung,> 100 µM
same,TGI,MALME-3M melanoma,> 100 µM
same,TGI,U251 CNS,> 100 µM
same,TGI,LOX IMVI melanoma,94 µM
same,TGI,SF-268 CNS,> 100 µM
same,TGI,RPMI-8226 leukemia,> 100 µM
same,TGI,SK-MEL-5 melanoma,40.6 µM
same,TGI,A549 NSCLC,> 100 µM
same,TGI,K-562 leukemia,> 100 µM
same,TGI,EKVX NSCLC,> 100 µM
same,TGI,UO-31 renal,> 100 µM
same,TGI,SR leukemia,44.1 µM
same,TGI,MDA-MB-231 breast,96.3 µM
same,TGI,SN12C renal,60.6 µM
same,TGI,BT-549 breast,> 100 µM
same,TGI,ACHN renal,> 100 µM
same,TGI,IGROV1 ovarian,> 100 µM
same,TGI,NCI-H226 lung,> 100 µM
same,TGI,NCI-H522 lung,> 100 µM
same,TGI,OVCAR-5 ovarian,> 100 µM
COc1cc(OC)cc(Oc2nc3c(N)cc(C(F)(F)F)cc3nc2-c2ccccc2)c1,TGI,RXF 393 renal,> 100 µM
same,TGI,MDA-MB-435,66.5 µM
same,TGI,CCRF-CEM leukemia,> 100 µM
same,TGI,SK-OV-3 ovarian,> 100 µM
same,TGI,MOLT-4 leukemia,81.1 µM
same,TGI,MCF7 breast,99 µM
same,TGI,T-47D breast,8.91 µM
same,TGI,SNB-19 CNS,> 100 µM
same,TGI,HCC-2998 colon,> 100 µM
same,TGI,TK-10 renal,> 100 µM
same,TGI,NCI-H23 lung,> 100 µM
same,TGI,OVCAR-8 ovarian,> 100 µM
same,TGI,OVCAR-4 ovarian,> 100 µM
same,TGI,COLO 205 colon,64.3 µM
same,TGI,M14 melanoma,> 100 µM
same,TGI,UACC-257 melanoma,> 100 µM
same,TGI,HCT-15 colon,55.9 µM
same,TGI,SK-MEL-2 melanoma,55.5 µM
same,TGI,SF-539 CNS,> 100 µM
same,TGI,SF-295 CNS,> 100 µM
same,TGI,SW-620 colon,> 100 µM
same,TGI,HT29 colon,> 100 µM
same,TGI,KM12 colon,50.3 µM
same,TGI,HL-60(TB) leukemia,52.4 µM
same,TGI,HCT-116 colon,> 100 µM
same,TGI,PC-3 prostate,> 100 µM
same,TGI,HOP-62 NSCLC,> 100 µM
same,TGI,A498 renal,> 100 µM
same,TGI,NCI/ADR-RES ovarian,> 100 µM
same,TGI,SNB-75 CNS,> 100 µM
same,TGI,HS 578T breast,> 100 µM
same,TGI,SK-MEL-28 melanoma,> 100 µM
same,TGI,786-0 renal,> 100 µM
same,TGI,UACC-62 melanoma,> 100 µM
same,TGI,HOP-92 NSCLC,> 100 µM
same,TGI,CAKI-1 renal,> 100 µM
same,TGI,NCI-H460 lung,> 100 µM
same,TGI,U251 CNS,> 100 µM
same,TGI,LOX IMVI melanoma,45.9 µM
same,TGI,SF-268 CNS,> 100 µM
same,TGI,RPMI-8226 leukemia,77.7 µM
same,TGI,SK-MEL-5 melanoma,> 100 µM
same,TGI,K-562 leukemia,31.4 µM
same,TGI,EKVX NSCLC,> 100 µM
same,TGI,UO-31 renal,> 100 µM
same,TGI,SR leukemia,75.7 µM
same,TGI,MDA-MB-231 breast,98.7 µM
same,TGI,BT-549 breast,> 100 µM
same,TGI,ACHN renal,> 100 µM
same,TGI,IGROV1 ovarian,> 100 µM
same,TGI,NCI-H226 lung,> 100 µM
